US11685746B2, “Heteroaryl compounds for treating Huntington's disease” (PTC THERAPEUTICS, INC., priority 2018, dated 2023)

Tested on: Endogenous Huntingtin Protein
Assay: Endogenous Huntingtin Protein Assay (MSD plates, MW1 or MAB2166 capture antibody)
Type: cell-based
Conditions: Table 1
Method in brief: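 Sandwich MSD immunoassay: plates were coated overnight at 4° C with MW1 (expanded polyQ) or MAB2166 capture antibody at 1 μg/mL, then blocked with 5% BSA. Samples were bound overnight at 4° C, followed by rabbit mAb #5656S and SULFO-TAG anti-rabbit detection, each at 0.25 μg/mL for 1 h at room temperature. Signal was read by electrochemiluminescence.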

Compound	IC50 [µM]
CN(c1nc2sc(-c3ccc(-c4cn[nH]c4)c4cn[nH]c34)nc2s1)C1CC(C)(C)NC(C)(C)C1 [Compound 107, N-methyl-5-[4-(1H-pyrazol-4-yl)-1H-indazol-7-yl]-N-(2,2,6,6-tetramethylpiperidin-4-yl)[1,3]thiazolo[5,4-d][1,3]thiazol-2-amine]	≤ 0.1
CC1CC(N(C)c2nc3sc(-c4ccc(-c5cn[nH]c5)c5cn[nH]c45)nc3s2)CCN1C (stereo not shown) [Compound 108, N-(1,2-dimethylpiperidin-4-yl)-N-methyl-5-[4-(1H-pyrazol-4-yl)-1H-indazol-7-yl][1,3]thiazolo[5,4-d][1,3]thiazol-2-amine]	≤ 0.1
C[C@H]1C[C@H](Oc2nc3sc(-c4ncc(-c5cn[nH]c5)c5cc[nH]c45)nc3s2)CCN1 [Compound 109, 7-(5-{[(2S,4R)-2-methylpiperidin-4-yl]oxy}[1,3]thiazolo[5,4-d][1,3]thiazol-2-yl)-4-(1H-pyrazol-4-yl)-1H-pyrrolo[2,3-c]pyridine]	≤ 0.1
CN(c1nc2sc(-c3ccc(-c4cn[nH]c4)c4cn[nH]c34)nc2s1)[C@H]1C[C@]2(C)CC[C@](C)(C1)N2 [Compound 110, N-[(1R,3s,5S)-1,5-dimethyl-8-azabicyclo[3.2.1]octan-3-yl]-N-methyl-5-[4-(1H-pyrazol-4-yl)-1H-indazol-7-yl][1,3]thiazolo[5,4-d][1,3]thiazol-2-amine]	≤ 0.1
CN(c1nc2sc(-c3ccc(Br)c4cn[nH]c34)nc2s1)[C@H]1C[C@]2(C)CC[C@](C)(C1)N2 [Compound 111, 5-(4-bromo-1H-indazol-7-yl)-N-[(1R,3s,5S)-1,5-dimethyl-8-azabicyclo[3.2.1]octan-3-yl]-N-methyl[1,3]thiazolo[5,4-d][1,3]thiazol-2-amine]	≤ 0.1
CC1CC(N(C)c2nc3sc(-c4ccc(-c5cn[nH]c5)c5nc[nH]c45)nc3s2)CCN1C (stereo not shown) [Compound 112, N-(1,2-dimethylpiperidin-4-yl)-N-methyl-5-[4-(1H-pyrazol-4-yl)-1H-benzimidazol-7-yl][1,3]thiazolo[5,4-d][1,3]thiazol-2-amine]	≤ 0.1
CN(c1nc2sc(-c3ncc(-c4cn[nH]c4)c4ccn(C)c34)nc2s1)C1CCNCC1 [Compound 113, N-methyl-5-[1-methyl-4-(1H-pyrazol-4-yl)-1H-pyrrolo[2,3-c]pyridin-7-yl]-N-(piperidin-4-yl)[1,3]thiazolo[5,4-d][1,3]thiazol-2-amine]	0.1 to 0.5
CN(c1nc2sc(-c3cnc(-c4cn[nH]c4)cn3)nc2s1)[C@H]1C[C@]2(C)CC[C@](C)(C1)N2C [Compound 114, N-methyl-5-[5-(1H-pyrazol-4-yl)pyrazin-2-yl]-N-[(1R,3s,5S)-1,5,8-trimethyl-8-azabicyclo[3.2.1]octan-3-yl][1,3]thiazolo[5,4-d][1,3]thiazol-2-amine]	≤ 0.1
CC1CC(N(C)c2nc3sc(-c4ncc(-c5cn[nH]c5)c5[nH]cnc45)nc3s2)CCN1C (stereo not shown) [Compound 115, N-(1,2-dimethylpiperidin-4-yl)-N-methyl-5-[7-(1H-pyrazol-4-yl)-1H-imidazo[4,5-c]pyridin-4-yl][1,3]thiazolo[5,4-d][1,3]thiazol-2-amine]	≤ 0.1
CN(c1nc2sc(-c3cnc(Br)n4ccnc34)nc2s1)C1CCNCC1 [Compound 116, 5-(5-bromoimidazo[1,2-c]pyrimidin-8-yl)-N-methyl-N-(piperidin-4-yl)[1,3]thiazolo[5,4-d][1,3]thiazol-2-amine]	0.5 to 1
CN(c1nc2sc(-c3ncc(Br)n4ccnc34)nc2s1)C1CCNCC1 [Compound 117, 5-(5-bromoimidazo[1,2-a]pyrazin-8-yl)-N-methyl-N-(piperidin-4-yl)[1,3]thiazolo[5,4-d][1,3]thiazol-2-amine]	1 to 3
CC1CC(N(C)c2nc3sc(-c4ccc(-n5nccn5)c5cc[nH]c45)nc3s2)CCN1C (stereo not shown) [Compound 118, N-(1,2-dimethylpiperidin-4-yl)-N-methyl-5-[4-(2H-1,2,3-triazol-2-yl)-1H-indol-7-yl][1,3]thiazolo[5,4-d][1,3]thiazol-2-amine]	0.5 to 1
CC1CC(N(C)c2nc3sc(-c4ccc(Cl)c5cc[nH]c45)nc3s2)CCN1C (stereo not shown) [Compound 119, 5-(4-chloro-1H-indol-7-yl)-N-(1,2-dimethylpiperidin-4-yl)-N-methyl[1,3]thiazolo[5,4-d][1,3]thiazol-2-amine]	1 to 3
C[C@H]1C[C@@H](Oc2nc3sc(-c4ncc(-c5cn[nH]c5)c5cc[nH]c45)nc3s2)CCN1 [Compound 120, 7-(5-{[(2S,4S)-2-methylpiperidin-4-yl]oxy}[1,3]thiazolo[5,4-d][1,3]thiazol-2-yl)-4-(1H-pyrazol-4-yl)-1H-pyrrolo[2,3-c]pyridine]	≤ 0.1
CC(C)N1CCC(N(C)c2nc3sc(-c4ncc(-c5cn[nH]c5)c5cc[nH]c45)nc3s2)CC1 [Compound 121, N-methyl-N-[1-(propan-2-yl)piperidin-4-yl]-5-[4-(1H-pyrazol-4-yl)-1H-pyrrolo[2,3-c]pyridin-7-yl][1,3]thiazolo[5,4-d][1,3]thiazol-2-amine]	≤ 0.1
CCN1CCC(N(C)c2nc3sc(-c4ncc(-c5cn[nH]c5)c5cc[nH]c45)nc3s2)CC1 [Compound 122, N-(1-ethylpiperidin-4-yl)-N-methyl-5-[4-(1H-pyrazol-4-yl)-1H-pyrrolo[2,3-c]pyridin-7-yl][1,3]thiazolo[5,4-d][1,3]thiazol-2-amine]	≤ 0.1

Compound	IC50 [µM]
CN(c1nc2sc(-c3ncc(-c4cn[nH]c4)c4cc[nH]c34)nc2s1)C1CCN2CCCC2C1 (stereo not shown) [Compound 123, N-methyl-N-{5-[4-(1H-pyrazol-4-yl)-1H-pyrrolo[2,3-c]pyridin-7-yl][1,3]thiazolo[5,4-d][1,3]thiazol-2-yl}octahydroindolizin-7-amine]	≤ 0.1
CC1CC(N(C)c2nc3sc(-c4ncc(Br)c5cc[nH]c45)nc3s2)CCN1C (stereo not shown) [Compound 124, 5-(4-bromo-1H-pyrrolo[2,3-c]pyridin-7-yl)-N-(1,2-dimethylpiperidin-4-yl)-N-methyl[1,3]thiazolo[5,4-d][1,3]thiazol-2-amine]	0.1 to 0.5
CC1CC(N(C)c2nc3sc(-c4ccc(-c5cn[nH]c5)c5cc[nH]c45)nc3s2)CCN1C (stereo not shown) [Compound 125, N-(1,2-dimethylpiperidin-4-yl)-N-methyl-5-[4-(1H-pyrazol-4-yl)-1H-indol-7-yl][1,3]thiazolo[5,4-d][1,3]thiazol-2-amine]	≤ 0.1
CC1CC(N(C)c2nc3sc(-c4ccc(-c5cn[nH]c5)cn4)nc3s2)CCN1C (stereo not shown) [Compound 126, N-(1,2-dimethylpiperidin-4-yl)-N-methyl-5-[5-(1H-pyrazol-4-yl)pyridin-2-yl][1,3]thiazolo[5,4-d][1,3]thiazol-2-amine]	0.1 to 0.5
CC1CC(N(C)c2nc3sc(-c4ccc(-c5cn[nH]c5)nc4)nc3s2)CCN1C (stereo not shown) [Compound 127, N-(1,2-dimethylpiperidin-4-yl)-N-methyl-5-[6-(1H-pyrazol-4-yl)pyridin-3-yl][1,3]thiazolo[5,4-d][1,3]thiazol-2-amine]	1 to 3
CN(c1nc2sc(-c3ccc(-c4cn[nH]c4)c4cc[nH]c34)nc2s1)C1CC(C)(C)NC(C)(C)C1 [Compound 128, N-methyl-5-[4-(1H-pyrazol-4-yl)-1H-indol-7-yl]-N-(2,2,6,6-tetramethylpiperidin-4-yl)[1,3]thiazolo[5,4-d][1,3]thiazol-2-amine]	≤ 0.1
CC1CC(N(C)c2nc3sc(-c4ncc(-c5cn[nH]c5)cn4)nc3s2)CCN1C (stereo not shown) [Compound 129, N-(1,2-dimethylpiperidin-4-yl)-N-methyl-5-[5-(1H-pyrazol-4-yl)pyrimidin-2-yl][1,3]thiazolo[5,4-d][1,3]thiazol-2-amine]	0.1 to 0.5
CC1CC(N(C)c2nc3sc(-c4cnc(-c5cn[nH]c5)nc4)nc3s2)CCN1C (stereo not shown) [Compound 130, N-(1,2-dimethylpiperidin-4-yl)-N-methyl-5-[2-(1H-pyrazol-4-yl)pyrimidin-5-yl][1,3]thiazolo[5,4-d][1,3]thiazol-2-amine]	1 to 3
CC1CC(N(C)c2nc3sc(-n4cnc(-c5cn[nH]c5)cc4=O)nc3s2)CCN1C (stereo not shown) [Compound 131, 3-{5-[(1,2-dimethylpiperidin-4-yl)(methyl)amino][1,3]thiazolo[5,4-d][1,3]thiazol-2-yl}-6-(1H-pyrazol-4-yl)pyrimidin-4(3H)-one]	0.1 to 0.5
CC1CC(N(C)c2nc3sc(-c4cnc(-c5cn[nH]c5)cn4)nc3s2)CCN1C (stereo not shown) [Compound 132, N-(1,2-dimethylpiperidin-4-yl)-N-methyl-5-[5-(1H-pyrazol-4-yl)pyrazin-2-yl][1,3]thiazolo[5,4-d][1,3]thiazol-2-amine]	0.1 to 0.5
CN(c1nc2sc(-c3ccc(-c4cn[nH]c4)cn3)nc2s1)C1CC(C)(C)NC(C)(C)C1 [Compound 133, N-methyl-5-[5-(1H-pyrazol-4-yl)pyridin-2-yl]-N-(2,2,6,6-tetramethylpiperidin-4-yl)[1,3]thiazolo[5,4-d][1,3]thiazol-2-amine]	≤ 0.1
c1cc2c(-c3cn[nH]c3)cnc(-c3nc4sc(N5CCC56CCCNC6)nc4s3)c2[nH]1 (stereo not shown) [Compound 134, 7-[5-(1,6-diazaspiro[3.5]nonan-1-yl)[1,3]thiazolo[5,4-d][1,3]thiazol-2-yl]-4-(1H-pyrazol-4-yl)-1H-pyrrolo[2,3-c]pyridine]	≤ 0.1
CN(c1nc2sc(-c3ccc(-c4cn[nH]c4)nc3)nc2s1)C1CC(C)(C)NC(C)(C)C1 [Compound 135, N-methyl-5-[6-(1H-pyrazol-4-yl)pyridin-3-yl]-N-(2,2,6,6-tetramethylpiperidin-4-yl)[1,3]thiazolo[5,4-d][1,3]thiazol-2-amine]	0.1 to 0.5
CN(c1nc2sc(-c3ncc(-c4cn[nH]c4)c4[nH]cnc34)nc2s1)C1CC(C)(C)NC(C)(C)C1 [Compound 136, N-methyl-5-[7-(1H-pyrazol-4-yl)-1H-imidazo[4,5-c]pyridin-4-yl]-N-(2,2,6,6-tetramethylpiperidin-4-yl)[1,3]thiazolo[5,4-d][1,3]thiazol-2-amine]	≤ 0.1
CN(c1nc2sc(-c3cnc(-c4cn[nH]c4)nc3)nc2s1)C1CC(C)(C)NC(C)(C)C1 [Compound 137, N-methyl-5-[2-(1H-pyrazol-4-yl)pyrimidin-5-yl]-N-(2,2,6,6-tetramethylpiperidin-4-yl)[1,3]thiazolo[5,4-d][1,3]thiazol-2-amine]	≤ 0.1
